Measurements published in patent US20070232615A1, “Chemical Compounds” (priority 2004, published 2007).

Tested on: HIV
Test: HOS HIV infectivity assay (Table 2, strain not given)
Format: cell-based
Conditions: Human immunodeficiency virus 1, read-out: Activity Level
Method: HOS HIV-1 Infectivity Assay
Compounds were profiled against two HIV-1 viruses, the M-tropic (CCR5 utilizing) Ba-L strain and the T-tropic (CXCR4 utilizing) IIIB strain. Both viruses were propagated in human peripheral blood lymphocytes. Compounds were tested for there ability to block infection of the HOS cell line (expressing hCXCR4/hCCR5/hCD4/pHIV-LTR-luciferase) by either HIV-1 Ba-L or HIV-1 IIIB. Compound cytotoxicity was also examined in the absence of virus addition.
HOS HIV-1 Infectivity Assay Format
HOS cells (expressing hCXCR4/hCCR5/hCD4/pHIV-LTR-luciferase) were harvested and diluted in Dulbeccos modified Eagles media supplemented with 2% FCS and non-essential amino acid to a concentration of 60,000 cells/ml. The cells were plated into 96-well plates (100 ul per well) and the plates were placed in a tissue culture incubator (37° C.; 5% CO2/95% air) for a period of 24 h.
Subsequently, 50 ul of the desired drug solution (4 times the final concentration) was added to each well and the plates were returned to the tissue culture incubator (37° C.; 5% CO2/95% air) for 1 h. Following this incubation 50 ul of diluted virus was added to each well (approximately 2 million RLU per well of virus). The plates were returned to the tissue culture incubator (37° C.; 5% CO2/95% air) and were incubated for a further 96 h.
Following this incubation the endpoint for the virally infected cultures was quantified following addition of Steady-Glo Luciferase assay system reagent (Promega, Madison, Wis.). Cell viability or non-infected cultures was measured using a CellTiter-Glo luminescent cell viability assay system (Promega, Madison, Wis.). All luminescent readouts are performed on a Topcount luminescence detector (Packard, Meridien, Conn.).

CN1CCN(c2cccc3nc(CN(Cc4ccccc4)[C@H]4CCCc5cccnc54)cn23)CC1 [Example 59, (8S)—N-{[5-(4-Methyl-1-piperazinyl)imidazo[1,2-a]pyridin-2-yl]methyl}-N-(phenylmethyl)-5,6,7,8-tetrahydro-8-quinolinamine] and Cc1cccc(CN(Cc2cn3c(N4CCN(C)CC4)cccc3n2)[C@H]2CCCc3cccnc32)c1 [Example 67, (8S)—N-[(3-Methylphenyl)methyl]-N-{[5-(4-methyl-1-piperazinyl)imidazo[1,2-a]pyridin-2-yl]methyl}-5,6,7,8-tetrahydro-8-quinolinamine] cannot be ordered by IC50: less than 0.1 µM for the first, less than 0.1 µM for the second.

CCCCN(Cc1cn2c(N3CCN(C)CC3)cccc2n1)[C@H]1CCCc2cccnc21 [Example 58, (8S)—N-Butyl-N-{[5-(4-methyl-1-piperazinyl)imidazo[1,2-a]pyridin-2-yl]methyl}-5,6,7,8-tetrahydro-8-quinolinamine] and CCN(Cc1cn2c(N3CCN(C)CC3)cccc2n1)[C@H]1CCCc2cccnc21 [Example 54, (8S)—N-Ethyl-N-{[5-(4-methyl-1-piperazinyl)imidazo[1,2-a]pyridin-2-yl]methyl}-5,6,7,8-tetrahydro-8-quinolinamine] cannot be ordered by IC50: less than 0.1 µM for the first, less than 0.1 µM for the second.

First: COCCN1CCN(c2cccc3nc(CN(C)C4CCCc5cccnc54)cn23)CC1 (stereo not drawn) [Example 33, N-Methyl-N-[(5-{4-[2-(methyloxy)ethyl]-1-piperazinyl}imidazo[1,2-a]pyridin-2-yl)methyl]-5,6,7,8-tetrahydro-8-quinolinamine]
Second: CN(C)CCN1CCN(c2cccc3nc(CN(C)C4CCCc5cccnc54)cn23)CC1 (stereo not drawn) [Example 32, N-[(5-{4-[2-(Dimethylamino)ethyl]-1-piperazinyl}imidazo[1,2-a]pyridin-2-yl)methyl]-N-methyl-5,6,7,8-tetrahydro-8-quinolinamine]
The IC50 of the first is lower: less than 0.1 µM for the first, 0.1 to 0.5 µM for the second.

CN1CCCN(c2cccc3nc(CN(C)[C@H]4CCCc5cccnc54)cn23)CC1 [Example 85, (8S)—N-Methyl-N-{[5-(4-methylhexahydro-1H-1,4-diazepin-1-yl)imidazo[1,2-a]pyridin-2-yl]methyl}-5,6,7,8-tetrahydro-8-quinolinamine] and CN1CCN(c2cccc3nc(CN(C)C4CCc5cccnc54)cn23)CC1 (stereo not drawn) [Example 46, N-Methyl-N-{[5-(4-methyl-1-piperazinyl)imidazo[1,2-a]pyridin-2-yl]methyl}-6,7-dihydro-5H-cyclopenta[b]pyridin-7-amine] cannot be ordered by IC50: less than 0.1 µM for the first, less than 0.1 µM for the second.

CNC1CCN(c2cccc3nc(CN(C)C4CCCc5cccnc54)cn23)CC1 (stereo not drawn) [Example 36, N-Methyl-N-({5-[4-(methylamino)-1-piperidinyl]imidazo[1,2-a]pyridin-2-yl}methyl)-5,6,7,8-tetrahydro-8-quinolinamine] and CN(Cc1cn2c(N3CCC(N)CC3)cccc2n1)C1CCCc2cccnc21 (stereo not drawn) [Example 37, N-{[5-(4-Amino-1-piperidinyl)imidazo[1,2-a]pyridin-2-yl]methyl}-N-methyl-5,6,7,8-tetrahydro-8-quinolinamine] cannot be ordered by IC50: less than 0.1 µM for the first, less than 0.1 µM for the second.

CCN(Cc1cn2c(N3CC[C@@H](N(C)C)C3)cccc2n1)[C@H]1CCCc2cccnc21 [Example 96, (8S)—N-({5-[(3R)-3-(Dimethylamino)-1-pyrrolidinyl]imidazo[1,2-a]pyridin-2-yl}methyl)-N-ethyl-5,6,7,8-tetrahydro-8-quinolinamine] and CN(C)[C@@H]1CCN(c2cccc3nc(CN(C)[C@H]4CCCc5cccnc54)cn23)C1 [Example 83, (8S)—N-({5-[(3R)-3-(Dimethylamino)-1-pyrrolidinyl]imidazo[1,2-a]pyridin-2-yl}methyl)-N-methyl-5,6,7,8-tetrahydro-8-quinolinamine] cannot be ordered by IC50: less than 0.1 µM for the first, less than 0.1 µM for the second.

CN1CCN(c2cccc3nc(CN(Cc4cccc(C(F)(F)F)c4)[C@H]4CCCc5cccnc54)cn23)CC1 [Example 70, (8S)—N-{[5-(4-Methyl-1-piperazinyl)imidazo[1,2-a]pyridin-2-yl]methyl}-N-{[3-(trifluoromethyl)phenyl]methyl}-5,6,7,8-tetrahydro-8-quinolinamine] and COc1cccc(CN(Cc2cn3c(N4CCN(C)CC4)cccc3n2)[C@H]2CCCc3cccnc32)c1 [Example 73, (8S)—N-{[3-(Methyloxy)phenyl]methyl}-N-{[5-(4-methyl-1-piperazinyl)imidazo[1,2-a]pyridin-2-yl]methyl}-5,6,7,8-tetrahydro-8-quinolinamine] cannot be ordered by IC50: less than 0.1 µM for the first, less than 0.1 µM for the second.

COc1ccc(CN(Cc2cn3c(N4CCN(C)CC4)cccc3n2)[C@H]2CCCc3cccnc32)cc1 [Example 74, (8S)—N-{[4-(Methyloxy)phenyl]methyl}-N-{[5-(4-methyl-1-piperazinyl)imidazo[1,2-a]pyridin-2-yl]methyl}-5,6,7,8-tetrahydro-8-quinolinamine] and Cc1ccc(CN(Cc2cn3c(N4CCN(C)CC4)cccc3n2)[C@H]2CCCc3cccnc32)cc1 [Example 68, (8S)—N-[(4-Methylphenyl)methyl]-N-{[5-(4-methyl-1-piperazinyl)imidazo[1,2-a]pyridin-2-yl]methyl}-5,6,7,8-tetrahydro-8-quinolinamine] cannot be ordered by IC50: less than 0.1 µM for the first, less than 0.1 µM for the second.

CN1CCC(N(C)c2cccc3nc(CN(C)C4CCCc5cccnc54)cn23)C1 (stereo not drawn) [Example 29, N-Methyl-N-({5-[methyl(1-methyl-3-pyrrolidinyl)amino]imidazo[1,2-a]pyridin-2-yl}methyl)-5,6,7,8-tetrahydro-8-quinolinamine] and CN(Cc1cn2c(N3CC[C@H](N(C)C)C3)cccc2n1)C1CCCc2cccnc21 (stereo partly drawn) [Example 24, N-({5-[(3S)-3-(Dimethylamino)-1-pyrrolidinyl]imidazo[1,2-a]pyridin-2-yl}methyl)-N-methyl-5,6,7,8-tetrahydro-8-quinolinamine] cannot be ordered by IC50: less than 0.1 µM for the first, less than 0.1 µM for the second.

CN(Cc1cn2c(N3CCN4CCCC4C3)cccc2n1)[C@H]1CCCc2cccnc21 (stereo partly drawn) [Example 82, (8S)—N-{[5-(Hexahydropyrrolo[1,2-a]pyrazin-2(1H)-yl)imidazo[1,2-a]pyridin-2-yl]methyl}-N-methyl-5,6,7,8-tetrahydro-8-quinolinamine] and CN(Cc1cn2c(N3CC[C@@H](N)C3)cccc2n1)C1CCCc2cccnc21 (stereo partly drawn) [Example 27, N-({5-[(3R)-3-Amino-1-pyrrolidinyl]imidazo[1,2-a]pyridin-2-yl}methyl)-N-methyl-5,6,7,8-tetrahydro-8-quinolinamine] cannot be ordered by IC50: less than 0.1 µM for the first, less than 0.1 µM for the second.

First: CN(Cc1cn2c(N)cccc2n1)C1CCCc2cccnc21 (stereo not drawn) [Example 43, N-[(5-Aminoimidazo[1,2-a]pyridin-2-yl)methyl]-N-methyl-5,6,7,8-tetrahydro-8-quinolinamine]
Second: CN(C)CCN(C)c1cccc2nc(CN(C)[C@H]3CCCc4cccnc43)cn12 [Example 81, N,N,N′-Trimethyl-N′-[2-({methyl[(8S)-5,6,7,8-tetrahydro-8-quinolinyl]amino}methyl)imidazo[1,2-a]pyridin-5-yl]-1,2-ethanediamine]
The IC50 of the first is higher: 0.1 to 0.5 µM for the first, less than 0.1 µM for the second.

Compared with CN(Cc1cn2c(NCCN3CCCCC3)cccc2n1)[C@H]1CCCc2cccnc21 [Example 103, (8S)—N-Methyl-N-[(5-{[2-(1-piperidinyl)ethyl]amino}imidazo[1,2-a]pyridin-2-yl)methyl]-5,6,7,8-tetrahydro-8-quinolinamine], CN(Cc1cn2c(N3CCOCC3)cccc2n1)C1CCCc2cccnc21 (stereo not drawn) [Example 20, N-Methyl-N-{[5-(4-morpholinyl)imidazo[1,2-a]pyridin-2-yl]methyl}-5,6,7,8-tetrahydro-8-quinolinamine] is higher in IC50: less than 0.1 µM for the first, 0.5 to 10 µM for the second. The first is the more potent here.

CN1CCN(c2cccc3nc(CN(CC4CC4)[C@H]4CCCc5cccnc54)cn23)CC1 [Example 57, (8S)—N-(Cyclopropylmethyl)-N-{[5-(4-methyl-1-piperazinyl)imidazo[1,2-a]pyridin-2-yl]methyl}-5,6,7,8-tetrahydro-8-quinolinamine] and CN1CCN(c2cccc3nc(CN(CCO)[C@H]4CCCc5cccnc54)cn23)CC1 [Example 78, 2-{{[5-(4-Methyl-1-piperazinyl)imidazo[1,2-a]pyridin-2-yl]methyl}[(8S)-5,6,7,8-tetrahydro-8-quinolinyl]amino}ethanol] cannot be ordered by IC50: less than 0.1 µM for the first, less than 0.1 µM for the second.

First: CN(Cc1cn2c(NC(=O)c3cccnc3)cccc2n1)C1CCCc2cccnc21 (stereo not drawn) [Example 44, N-(2-{[Methyl(5,6,7,8-tetrahydro-8-quinolinyl)amino]methyl}imidazo[1,2-a]pyridin-5-yl)-3-pyridinecarboxamide]
Second: CN(C)Cc1ccccc1-c1cccc2nc(CN(C)C3CCCc4cccnc43)cn12 (stereo not drawn) [Example 42, N-[(5-{2-[(Dimethylamino)methyl]phenyl}imidazo[1,2-a]pyridin-2-yl)methyl]-N-methyl-5,6,7,8-tetrahydro-8-quinolinamine]
The IC50 of the first is higher: 0.5 to 10 µM for the first, 0.1 to 0.5 µM for the second. The second is the more potent here.

CN1CCN(c2cccc3nc(CNC4CCCc5cccnc54)cn23)CC1 (stereo not drawn) [Example 39, N-{[5-(4-Methyl-1-piperazinyl)imidazo[1,2-a]pyridin-2-yl]methyl}-5,6,7,8-tetrahydro-8-quinolinamine] and CN1CCN(c2cccc3nc(CN(Cc4ccccc4F)[C@H]4CCCc5cccnc54)cn23)CC1 [Example 60, (8S)—N-[(2-Fluorophenyl)methyl]-N-{[5-(4-methyl-1-piperazinyl)imidazo[1,2-a]pyridin-2-yl]methyl}-5,6,7,8-tetrahydro-8-quinolinamine] cannot be ordered by IC50: less than 0.1 µM for the first, less than 0.1 µM for the second.
